Like-named read-outs stand apart in the source and are kept apart here.
Tests used:
human MIF [1] = target: T1, human MIF (Homo sapiens, UniProt P14174); test: Mass spectrometric; details: 30 µM each of MIF and compound, one hour at 25 °C
T1 sequence (P14174 2-115 limits assumed): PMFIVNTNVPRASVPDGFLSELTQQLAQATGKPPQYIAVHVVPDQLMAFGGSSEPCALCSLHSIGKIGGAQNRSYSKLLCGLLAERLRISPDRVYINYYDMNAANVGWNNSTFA

[2] = tested on: MIF-dependent ERK1/2 phosphorylation; details: synovial fibroblasts; for effect on MIF-enhanced ERK phosphorylation (in words): co-administration with MIF, Figure 2
human MIF [3] = target: T1, human MIF; details: cited from earlier work

Q: Which “fraction of MIF covalently modified” value (human MIF [1]) does the source give for O=c1c2ccc(F)cc2sn1-c1ccc(Cl)cc1 [1a, 2-(4-chlorophenyl)-6-fluoro-benzo[d]isothiazol-3(2H)-one] here?
A: ca. 3%

Q: Which “effect on MIF-enhanced ERK phosphorylation (in words)” value [2] does the source give for N#Cc1ccc(-n2sc3cc(F)ccc3c2=O)cc1 [1c] here?
A: substantial reduction of phosphorylation

Q: For O=c1c2ccc(O)cc2sn1-c1ccc(Cl)cc1 [1w], which “reduction of ERK phosphorylation” value ([2]; at 100 nM, added with MIF for 30 minutes) is on record?
A: 20%

Q: What about the “reduction of ERK phosphorylation” value ([2]; at 1 µM, added with MIF for 30 minutes) of the same molecule?
A: 35%

Q: What about the “effect on MIF-enhanced ERK phosphorylation (in words)” value [2] of the same molecule?
A: substantial reduction of phosphorylation

Q: With Ic1cc(-c2ccccc2)ncn1 [4-IPP, 4-iodo-6-phenylpyrimidine] as the molecule, how does the “fraction of the protein (MIF) covalently modified” value (human MIF [3]) read?
A: ca. 20%

Q: Which “reduction of ERK phosphorylation” value ([2]; at 2 µM, racemate) does the source give for COC(=O)CC1CC(c2ccc(O)cc2)=NO1 (stereo not shown) [ISO-1, reference compound] here?
A: 19%
